Converted amounts (≈) assume the structure as drawn. “And” between values parts separate entries of the source, which are not always exact repeats. Identical values can stand only once.
What was measured:
[1] = tested on: Enterobacter cloacae isolate 3678; experiment: MIC determination (broth microdilution in LB medium); format: cell-based
Description: (§1) The minimal inhibitory concentration (MIC) has been determined according to the CSLI guidelines (CLSI [2012]). Briefly, in a sterile polystyrene U-bottom 96-well plate, a 2-fold serial dilution ranging from 100 to 0.78 μM of testing compounds has been prepared in 50 μL MHB. A freshly inoculated S. aureus culture was grown until OD600 nm of approx. 0.6 and diluted to 10^6 CFU/mL in MHB. Finally, 50 μL of the latter cell suspension was added to each well and then incubated statically for 18–24 h at 37 °C. MIC was determined using BacTiterGlo ATP assay (Promega, Madison, WI, USA) and Tecan Infinite F200 Pro (Tecan, Männedorf, Switzerland). Moxifloxacin and DMSO were used as positive and negative control, respectively. Sublethal concentrations of colistin (0.1 μM) were used in some experiments to increase the permeability of the gram-negative cell envelope for compound testing. For E. cloacae, a broth microdilution assay was performed using a serial 2-fold dilution in 96-well flat-bottomed plates (Falcon, BD Bioscience, Heidelberg) of both PPs in broth LB medium (Roth, Karlsruhe) at a concentration range of 50–0.024 μM.

preformed MRSA biofilms = experiment: Biofilm integrity (crystal violet staining, Alcian blue fluorescence microscopy); format: cell-based, Staphylococcus aureus
Description: Viability was measured as described above utilizing the Resazurin reduction assay. Biofilm formation was measured using crystal violet staining as described elsewhere (Christensen et al. [1985]; Stepanovic et al. [2007]). Briefly, biofilms were washed three times with PBS and allowed to air dry before 0.1% (v/v) crystal violet solution (Waldeck GmbH & Co., Münster, Germany) was added to each well. The biofilms were stained for 15 min at room temperature (RT). Afterwards, the plates were washed three times again with PBS, and 30% acetic acid was added for 30 min at RT to solubilise the dye. Finally, 100 μL was transferred to a fresh 96-well plate to measure absorption at 600 nm with a plate reader.
Biofilms were pre-grown as described above. Alcian blue staining was performed to stain the EPS. A 1% Alcian blue staining solution was prepared in 3% glacial acetic acid. Staining solution was added to the biofilm in sufficient amount to cover the whole biofilm and incubated for 30 min at RT. Next, the biofilm was washed twice with PBS, and 200 μL 10% formalin solution was added. Fluorescence microscopy was performed using a Nikon Eclipse TS100 fluorescence microscope.

persisters of MRSA Mu50 = experiment: Antipersister activity assay (Resazurin); format: cell-based; conditions: Staphylococcus aureus, 24 h, read-out: MIC against persisters
Description: Cultures were, if not stated differently, incubated at 37 °C with aeration and shaking (150 rpm) in Mueller-Hinton broth (MHB). Bacteria were freshly incubated at the next morning from an overnight pre-culture for actively growing bacteria to an OD600 nm of approx. 0.6. To ensure persistent growth form, the bacteria were grown overnight until a density at OD600 nm > 5.0 was obtained. For biofilm growth, some colonies from a Mueller-Hinton agar (MHA) plate were picked and resuspended in MHB. Cell density has been adjusted to OD600 nm = 0.8, and cells were sown into a flat-bottom 96-well plate to be incubated statically at 37 °C with aeration. Studies were mainly performed with S. aureus Mu50.
Sterile U-bottom 96-well polystyrene plates were used for the assay. The wells were prepared with a final volume of 50 μL phosphate-buffered saline (PBS, NaCl = 137 mM, KCl = 2.7 mM, NaHPO4 = 10 mM, KH2PO4 = 1.8 mM, pH = 7.4) containing a 2-fold serial dilution of compounds ranging from 100 to 0.78 μM. S. aureus was cultivated as described above and washed three times with PBS before adjusting the cell density to approx. 2 × 10^7 cells/mL (OD600 nm = 0.08). […]
Viability of bacterial cells was estimated employing the Resazurin dye reduction assay. […] Finally, the fluorescence was quantified in a plate reader with 535-nm excision and 590-nm emission wavelengths. […]

[2] = tested on: S. aureus mutant M4 (parental strain Mu50); experiment: MIC of spontaneously resistant mutant; format: cell-based, Staphylococcus aureus; conditions: for MIC90: Staphylococcus aureus
Description: as §1
(§2) Spontaneous resistant mutants have been generated with 2-bromo-PP and 3-bromo-PP to further investigate the mechanism of antibacterial action and resistance. Since isolation of spontaneous resistant mutants in one step was not successful on solid media containing 2-bromo-PP or 3-bromo-PP (i.e. resistance frequency < 10^−7 at 5-fold MIC), enrichment was done by passaging bacteria daily in liquid media containing increasing sublethal concentrations of PPs. […] Moreover, we observed cross-resistance between PPs since 2-bromo-PP-resistant mutants were also resistant against 3-bromo-PP and vice versa (Fig. 4a; Table 2).

[3] = tested on: S. aureus mutant M1 (parental strain ATCC 25923); experiment: MIC of spontaneously resistant mutant; format: cell-based, Staphylococcus aureus; conditions: for MIC90: Staphylococcus aureus, ATCC25923
Description: as §1, §2

human PBMNCs = tested on: human PBMNCs; parameters: method as in Mayer et al. [2019]; conditions: ref Mayer et al. [2019]; cited from earlier work
pre-formed MRSA biofilms = experiment: Biofilm viability by CFU plating; format: cell-based, Staphylococcus aureus; conditions: 24 h of treatment, 4× minimal biofilm inhibitory concentration, moxifloxacin 20 μM
Description: Additionally, biofilm viability was quantified by CFU plating. Biofilms were pregrown as described above and treated for 24 h with 4× minimal biofilm inhibitory concentrations as calculated from the Resazurin reduction assay. Biofilms were dispersed by pipetting followed by sonification in a water bath. Dilutions were plated on Mueller-Hinton agar plates and incubated overnight at 37 °C.

A. baumannii ATCC 747 = experiment: Killing kinetics, replicating cells; format: cell-based; conditions: 2-bromo-PP 3.125 µM, 3-bromo-PP 6.25 µM; multidrug-resistant Acinetobacter baumannii as worded
Description: 39 Figure S2 – Bactericidal effects of 2-bromo-PP and 3-bromo-PP against replicating
40 cells of A. baumannii ATCC 747. Colistin was used as positive control (3.125 µM). 2-
41 bromo-PP and 3-bromo-PP were used at concentrations of 3.125 µM and 6.25 µM,
42 respectively. The limit of detection was 500 CFU/mL.
(1 picture or pasted object on this page, not shown here)

SMILES: Oc1c(Br)cc(Br)cc1Oc1ccc(Br)cc1Br [2-bromo-PP, 4,6-dibromo-2-(2′,4′-dibromophenoxy)phenol]
- MIC90 [1]: 12.5 µM and 6.27 µg/mL
- biofilm integrity / dispersal (preformed MRSA biofilms): Neither 2-bromo-PP (light blue triangle) nor 3-bromo-PP (blue inverted triangle) disperse biofilms
- MIC (persisters of MRSA Mu50): 12.5 µM (≈ 6.27 µg/mL)
- MIC90 [2]: 1.56 µM and 0.78 µg/mL
- MIC90 [3]: 1.56 µM and 0.78 µg/mL
- cytotoxicity (human PBMNCs): low cytotoxicity
- reduction in viable cell counts in biofilms (pre-formed MRSA biofilms): ca. 5 order of magnitudes
- bactericidal effect against replicating cells (A. baumannii ATCC 747): comparable bactericidal effect

SMILES: Oc1c(Br)cc(Br)c(Br)c1Oc1ccc(Br)cc1Br [3-bromo-PP, 3,4,6-tribromo-2-(2′,4′-dibromophenoxy)phenol]
- MIC90 [1]: 12.5 µM and 7.26 µg/mL
- biofilm integrity / dispersal (preformed MRSA biofilms): Neither 2-bromo-PP (light blue triangle) nor 3-bromo-PP (blue inverted triangle) disperse biofilms
- MIC (persisters of MRSA Mu50): 6.25 µM (≈ 3.63 µg/mL)
- MIC90 [2]: 3.12 µM and 1.81 µg/mL
- MIC shift against 3-bromo-PP ([2]; mutant M4 raised against 3-bromo-PP, vs parental strain Mu50): 32 ×
- MIC90 [3]: 3.12 µM and 1.81 µg/mL
- MIC shift against 3-bromo-PP ([3]; mutant M1 raised against 2-bromo-PP, vs parental strain): 4 ×
- cytotoxicity (human PBMNCs): low cytotoxicity
- reduction in viable cell counts in biofilms (pre-formed MRSA biofilms): ca. 5 order of magnitudes
- bactericidal effect against replicating cells (A. baumannii ATCC 747): comparable bactericidal effect

From article PMC8217011, “Natural brominated phenoxyphenols kill persistent and biofilm-incorporated cells of MRSA and other pathogenic bacteria” (Applied Microbiology and Biotechnology, 2020)
